# Measurements published in ChEMBL document CHEMBL4261494, “Design, synthesis and biological evaluation of novel Schiff base-bridged tetrahydroprotoberberine triazoles as a new type of potential antimicrobial agents” (Medchemcomm, 2017).
# Active and inactive are the calls of the source. No cut-off for these calls is given here.
# How the values were obtained:
# [1] = test system: Escherichia coli; format: functional; conditions: JM109, 24 h
# [2] = test system: Micrococcus luteus; format: functional; conditions: ATCC 4698, 24 h
# [3] = test system: Staphylococcus aureus; format: functional; conditions: ATCC 25923, 24 h
# [4] = test system: Shigella dysenteriae; format: functional; conditions: 24 h
# [5] = test system: Escherichia coli; format: functional; conditions: DH52, 24 h
# [6] = test system: Pseudomonas aeruginosa; format: functional; conditions: ATCC 27853, 24 h
# [7] = test system: Proteus vulgaris; format: functional; conditions: ATCC 13315, 24 h
# [8] = test system: Salmonella typhi; assay: microbe, parasite or virus in culture; conditions: Salmonella enterica, 24 h
# [9] = test system: Staphylococcus aureus; format: functional; conditions: N315, 24 h
# [10] = test system: Bacillus spizizenii; format: functional; conditions: ATCC 6633, 24 h
# [11] = Aqueous solubility of the compound in pH 7.4 phosphate buffer at 1 mg after 3 hrs by UV absorption analysis; format: physicochemical
# [12] = test system: Staphylococcus aureus; assay: Antibacterial activity against methicillin-resistant Staphylococcus aureus N315 after 14 passages; format: functional, organism-based
# [13] = test system: Aspergillus flavus; format: functional; conditions: for MIC: ATCC 204304, 24 h
# [14] = test system: DNA; assay: Induction of Escherichia coli supercoiled pUC19 DNA cleavage at 0.0125 mM after 16 hrs in absence of Zn2+ by ethidium bromide staining-based agarose gel electrophoresis method; format: nucleic-acid assay
# [15] = test system: Candida albicans; format: functional; conditions: for MIC: ATCC 10231, 24 h
# [16] = biological target: T1, Albumin (Homo sapiens, UniProt P02768); assay: Binding affinity to HSA assessed as quenching constant at 288 K by UV-vis absorption spectral analysis; format: ADME; conditions: isolated protein
# T1 sequence (P02768 whole entry): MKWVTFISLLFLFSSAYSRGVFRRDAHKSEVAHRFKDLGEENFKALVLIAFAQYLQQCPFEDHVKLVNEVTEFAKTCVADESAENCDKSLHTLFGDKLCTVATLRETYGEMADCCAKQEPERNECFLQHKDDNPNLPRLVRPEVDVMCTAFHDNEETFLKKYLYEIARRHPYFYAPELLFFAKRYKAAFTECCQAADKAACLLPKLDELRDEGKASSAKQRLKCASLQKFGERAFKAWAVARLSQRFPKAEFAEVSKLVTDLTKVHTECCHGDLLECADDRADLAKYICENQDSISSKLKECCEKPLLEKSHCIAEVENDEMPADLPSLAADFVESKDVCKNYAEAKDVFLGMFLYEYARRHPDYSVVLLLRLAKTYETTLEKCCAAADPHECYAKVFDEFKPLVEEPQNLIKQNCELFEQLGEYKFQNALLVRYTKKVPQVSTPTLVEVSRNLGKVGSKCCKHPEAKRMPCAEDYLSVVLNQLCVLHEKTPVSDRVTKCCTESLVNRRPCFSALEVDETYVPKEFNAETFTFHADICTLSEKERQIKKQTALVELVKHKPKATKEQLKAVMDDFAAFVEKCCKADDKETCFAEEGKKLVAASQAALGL
# [17] = test system: Calf thymus DNA; assay: Binding affinity to calf thymus DNA assessed as increase in hypochromic effect up to 2 x 10^-5 mol/L by UV absorption spectral analysis; format: nucleic-acid assay; conditions: Bos taurus
# [18] = test system: Staphylococcus aureus; assay: Bactericidal activity against methicillin-resistant Staphylococcus aureus N315 assessed as log reduction in viable bacterial count at 4 times MIC incubated up to 1 hr followed by replating on yeast-dextrose agar plates and measured after 24 hrs by time kill assay; format: functional
# [19] = test system: Cyberlindnera jadinii; format: functional; conditions: for MIC: Williopsis jadinii, ATCC 9950, 24 h
# [20] = test system: Saccharomyces cerevisiae; format: functional; conditions: 24 h
# [21] = test system: DNA; assay: Induction of Escherichia coli supercoiled pUC19 DNA cleavage at 0.0125 mM after 16 hrs in presence of Zn2+ by ethidium bromide staining-based agarose gel electrophoresis method; format: nucleic-acid assay
# [22] = test system: Staphylococcus aureus; assay: Potency index, ratio of chloromycin MIC to test compound MIC for methicillin-resistant Staphylococcus aureus N315; format: functional
# [23] = test system: Calf thymus DNA; assay: Binding affinity to calf thymus DNA by UV absorption spectral analysis; format: nucleic-acid assay; conditions: Bos taurus
# [24] = biological target: T1, Albumin; assay: Binding affinity to HSA assessed as quenching constant at 298 K by UV-vis absorption spectral analysis; format: ADME; conditions: isolated protein
# [25] = biological target: T1, Albumin; assay: Binding affinity to HSA assessed as quenching constant at 310 K by UV-vis absorption spectral analysis; format: ADME; conditions: isolated protein
# [26] = test system: Calf thymus DNA; assay: Inhibition of neutral red binding to calf thymus DNA up to 2 x 10^-5 mol/L by UV absorption spectral analysis; format: nucleic-acid assay; conditions: Bos taurus
# [27] = test system: Staphylococcus aureus; assay: Potency index, ratio of norfloxacin MIC to test compound MIC for methicillin-resistant Staphylococcus aureus N315; format: functional
# [28] = test system: Kregervanrija fluxuum; format: functional; conditions: for MIC: ATCC 9888, 24 h
# [29] = test system: Escherichia coli; assay: Potency index, ratio of chloromycin MIC to test compound MIC for Escherichia coli JM109; format: functional
# [30] = test system: Salmonella typhi; assay: Potency index, ratio of chloromycin MIC to test compound MIC for Bacillus typhi; format: functional, Salmonella enterica subsp. enterica serovar Typhi
Compound,MIC [1],MIC [2],MIC [3],MIC [4],MIC [5],MIC [6],MIC [7],MIC [8],MIC [9],MIC [10],solubility at 3 h [11],MIC [19],MIC [20],also measured
COc1cc(/C=N/n2cnnc2)c2c(c1OCc1ccc(Cl)cc1Cl)CN1CCc3cc4c(cc3C1C2)OCO4 (stereo unspecified),16 µg/mL,128 µg/mL,16 µg/mL,512 µg/mL,256 µg/mL,32 µg/mL,32 µg/mL,32 µg/mL,8 µg/mL,32 µg/mL,–,–,–,–
COc1cc(/C=N/n2cnnc2)c2c(c1OCc1ccccc1Cl)CN1CCc3cc4c(cc3C1C2)OCO4 (stereo unspecified),4 µg/mL,256 µg/mL,16 µg/mL,16 µg/mL,64 µg/mL,2 µg/mL,512 µg/mL,1 µg/mL,16 µg/mL,32 µg/mL,–,–,–,–
CCCCCCCCCCCCOc1c(OC)cc(/C=N/n2cnnc2)c2c1CN1CCc3cc4c(cc3C1C2)OCO4 (stereo unspecified),512 µg/mL,512 µg/mL,256 µg/mL,512 µg/mL,256 µg/mL,512 µg/mL,256 µg/mL,256 µg/mL,512 µg/mL,256 µg/mL,97 µg/mL,–,–,–
COc1cc(/C=N/n2cnnc2)c2c(c1OCc1ccccc1)CN1CCc3cc4c(cc3C1C2)OCO4 (stereo unspecified),32 µg/mL,1 µg/mL,8 µg/mL,32 µg/mL,16 µg/mL,8 µg/mL,16 µg/mL,4 µg/mL,2 µg/mL,32 µg/mL,178 µg/mL,0.5 to 32 µg/mL,0.5 µg/mL,Activity [12]: Active; MIC [13]: 0.5 to 32 µg/mL; Activity [14]: inactive; MIC [15]: 0.5 to 32 µg/mL; Kq [16]: 2.55 ×10¹³ L/mol/s; Activity [17]: Active; FC [18]: >3; Activity [21]: Active; Ratio [22]: 8; K [23]: 2.27 ×10⁴ L/mol; Kq [24]: 2.05 ×10¹³ L/mol/s; Kq [25]: 1.7 ×10¹³ L/mol/s; inhibition [26]: Active; Ratio [27]: 4; MIC [28]: 0.5 to 32 µg/mL
CCCCCCCCOc1c(OC)cc(/C=N/n2cnnc2)c2c1CN1CCc3cc4c(cc3C1C2)OCO4 (stereo unspecified),32 µg/mL,16 µg/mL,8 µg/mL,64 µg/mL,16 µg/mL,512 µg/mL,16 µg/mL,16 µg/mL,16 µg/mL,16 µg/mL,–,–,–,–
CCCCCCOc1c(OC)cc(/C=N/n2cnnc2)c2c1CN1CCc3cc4c(cc3C1C2)OCO4 (stereo unspecified),4 µg/mL,16 µg/mL,8 µg/mL,8 µg/mL,32 µg/mL,32 µg/mL,16 µg/mL,2 µg/mL,32 µg/mL,8 µg/mL,442 µg/mL,2 to 32 µg/mL,2 to 32 µg/mL,Ratio [29]: 8; MIC [13]: 2 to 32 µg/mL; Ratio [30]: 16; MIC [15]: 2 to 32 µg/mL; MIC [28]: 2 to 32 µg/mL
COc1cc(/C=N/n2cnnc2)c2c(c1OCc1ccc(Cl)cc1)CN1CCc3cc4c(cc3C1C2)OCO4 (stereo unspecified),8 µg/mL,16 µg/mL,8 µg/mL,64 µg/mL,32 µg/mL,4 µg/mL,8 µg/mL,8 µg/mL,32 µg/mL,16 µg/mL,613 µg/mL,0.5 µg/mL,–,–
CCCCOc1c(OC)cc(/C=N/n2cnnc2)c2c1CN1CCc3cc4c(cc3C1C2)OCO4 (stereo unspecified),16 µg/mL,1 µg/mL,16 µg/mL,8 µg/mL,32 µg/mL,16 µg/mL,16 µg/mL,16 µg/mL,8 µg/mL,16 µg/mL,121 µg/mL,–,–,–
COc1cc(C=O)c2c(c1O)CN1CCc3cc4c(cc3C1C2)OCO4 (stereo unspecified),256 µg/mL,2 µg/mL,128 µg/mL,512 µg/mL,256 µg/mL,16 µg/mL,64 µg/mL,2 µg/mL,256 µg/mL,32 µg/mL,79 µg/mL,–,1 µg/mL,Activity ([13]; ATCC 204304): inactive; Activity ([15]; ATCC 10231): inactive; Activity ([19]; ATCC 9950): inactive; Activity ([28]; ATCC 9888): inactive
